Experimental data from patent publication US4341868A, “Method and test composition for the determination of the substrate for xanthine oxidase” (Kyowa Hakko Kogyo Co., Ltd., priority 1978, dated 1982).

Assays:
[1] = tested on: xanthine oxidase; experiment: Inhibition of xanthine oxidase (Method I); format: biochemical, Enterobacter cloacae; details: for inhibition of xanthine oxidase (in words): conclusion from Table 2
Experimental: The reaction is carried out at 37° C. for ten minutes. […] The thus obtained value is defined as OD283. This value corresponds to the amount of uric acid formed.
Since the reaction product, uric acid has a maximum absorption at 283 nm in acidic region and the molecular extinction coefficient is 1.238×10^4 (Analytical Biochemistry 38, 65, 1970), the unit (U) of xanthine oxidase is as follows:
One unit of enzyme activity is defined as the activity of enzyme which forms 1 μmol of uric acid in one minute at 37° C. and at a pH of 7.3.
Xanthine oxidase activity is determined in the same manner as in Method I except that 0.25 U/ml xanthine oxidase solution is used and various enzyme inhibitors are added.

[2] = tested on: xanthine oxidase; experiment: Substrate specificity (formed hydrogen peroxide, Method II); format: biochemical, Enterobacter cloacae; details: for Relative activity: activity on xanthine defined as 100, 0.1 ml of 5 mM substrate, 0.25 U/ml enzyme, pH 7.3, 37° C.; for activity of xanthine oxidase on substrate (in words): conclusion from Table 1
Experimental: After completion of the reaction, the absorbancy of the reaction solution is measured at 500 nm. Molecular extinction coefficient of quinoneimine pigment formed in the reaction is 5.33×10^3 (Clinical Chemistry 20, 470, 1974). When a unit of enzyme activity is defined as the activity of enzyme which forms 1 μmol of hydrogen peroxide in one minute at 37° C. and at a pH of 7.3, the unit (U) of xanthine oxidase is as follows:
The same procedures as in Method II are repeated except that 0.25 U/ml xanthine oxidase and 0.1 ml of 5 mM solutions of various substrates are used, and the amount of the formed hydrogen peroxide is determined.

[3] = pH 7.3
Experimental: Hypoxanthine is oxidized by the action of the present enzyme and the formed hydrogen peroxide is reacted with a coloring reagent.
The enzyme-containing solution is subjected to reaction at 37° C. and the absorbancy of the reaction solution colored by the formation of quinoneimine derived from hydrogen peroxide is measured at 500 nm at regular intervals.
The solution is subjected to reaction at 37° C. and the absorbancy of the reaction solution is measured at 293 nm at regular intervals.

[4] = tested on: xanthine oxidase; experiment: Examples 2 and 3: xanthine oxidase activity with nucleic acid compound added to the medium; format: cell-based, Enterobacter cloacae KY 3066
Experimental: In this example, 40 ml of the medium (pH 7.2) containing 0.5 g/dl yeast extract, 0.5 g/dl corn steep liquor, 0.1 g/dl peptone, 0.05 g/dl KH2 PO4, 0.1 g/dl K2 HPO4, […] and is sterilized at 120° C. for 15 minutes. One loopful of the seed culture of Enterobacter cloacae KY 3066 is inoculated into the medium and culturing is carried out at 30° C. for 48 hours.
The microbial cells are recovered from the culture liquor by centrifugation and are suspended in 20 ml of the buffer. The suspension is subjected to ultrasonic disintegration.

[5] = tested on: xanthine oxidase; format: biochemical, Enterobacter cloacae; details: substrate 0.15 μmol, 20 minutes
Experimental: As a coloring solution, 0.1 M tris-hydrochloride buffer (pH 7.3) containing 10 mmol/l 4-aminoantipyrine, 10 mmol/l phenol and 490 U/100 ml peroxidase is prepared. […] The absorbancy of the reaction solution is measured at 500 nm.

[6] = tested on: xanthine oxidase derived from milk; details: ferricyanide 100; cited from earlier work
[7] = tested on: xanthine oxidase; experiment: Experiment 3: electron acceptor of the present enzyme; format: biochemical, Enterobacter cloacae; details: acceptor 0.1 mM, 340 nm
Experimental: 0.15 ml of 10 mM xanthine aqueous solution, 1.0 ml of 100 mM tris-hydrochloride buffer (pH 7.3), 0.65 ml of water and 1 ml of various electron acceptors shown in Table 3 are mixed. The mixture and a solution of xanthine oxidase obtained in Example 1 are incubated at 37° C. and then nitrogen gas is introduced into the mixture and the enzyme solution for 3~4 minutes to remove dissolved oxygen.
Then, 0.2 ml of 0.25 U/ml xanthine oxidase is added to 2.8 ml of the reaction mixture to initiate the reaction and the absorbancy is measured every 15 seconds. The values obtained during one minutes of 30 to 90 seconds after the addition of xanthine oxidase is used as data.
When oxygen is used as an acceptor, nitrogen gas is not introduced into the mixture and the reaction product, uric acid obtained using dissolved oxygen is determined by measuring the absorbancy at 295 nm.

With `O=C([O-])c1cc[c]([Hg][Cl])cc1.[Na+]` [PCMB, Sodium salt of pchloromercuribenzoic acid] the “inhibition of xanthine oxidase (in words)” value (from here on “inhibition … (in words)”) [1] was “inhibitors of xanthine oxidase”, the Inhibition rate ([1]; inhibitor 1 × 10^-4 M) was 76.6% and the Inhibition rate ([1]; inhibitor 1 × 10^-5 M) was 34.7%. It also gave an Inhibition rate ([1]; inhibitor 1 × 10^-6 M) of 0%.
For `O.O.O.O.O.O.O.O=S(=O)([O-])[O-].[Fe+2]` [FeSO4.7H2 O], the “inhibition … (in words)” value [1] was “inhibitors of xanthine oxidase”, the Inhibition rate ([1]; inhibitor 1 × 10^-4 M) was 92.3% and the Inhibition rate ([1]; inhibitor 1 × 10^-5 M) was 0%.
With `Nc1ncnc2nc[nH]c12` [Adenine] the Relative activity [2] was 0%.
For “xanthine oxidase derived from milk: xanthine oxidase derived from milk (product of Boehringer Mannheim Co.)”, the “stability of pigment (in words)” value [3] was “then decrease in spite of the continuous formation of uric acid”.
For `O=c1[nH]c(=O)c2ncn([C@@H]3O[C@H](CO)[C@@H](O)[C@H]3O)c2[nH]1` [Xanthosine], the Relative activity [2] was 0% and the Xanthine oxidase ([4]; amount of addition 0.57 g/dl) was 0.20 U/ml.
`Cn1c(=O)c2[nH]cnc2n(C)c1=O` [Theophylline] gave a Relative activity [2] of 0%.
In the case of `Nc1ncnc2c1ncn2[C@@H]1O[C@H](CO)[C@@H](O)[C@H]1O` [Adenosine], the Relative activity [2] is reported as 2.5%.
In the case of `Oc1ncc2[nH]cnc2n1` [2-Hydroxypurine], the Relative activity [2] is reported as 88.5% and the “activity of xanthine oxidase on substrate (in words)” value [2] is reported as “strong activity”.
`O=c1[nH]c(=O)c2[nH]c(=O)[nH]c2[nH]1` [Uric acid] gave a Relative activity [2] of 0%.
In the case of `OC[C@H]1O[C@@H](n2cnc3c(O)ncnc32)[C@H](O)[C@@H]1O` [Inosine], the Relative activity [2] is reported as 0% and the Xanthine oxidase ([4]; amount of addition 0.54 g/dl) is reported as 0.20 U/ml.
For `O=[N+]([O-])[O-].[Ag+]` [AgNO3], the “inhibition … (in words)” value [1] was “inhibitors of xanthine oxidase”, the Inhibition rate ([1]; inhibitor 1 × 10^-4 M) was 97.8% and the Inhibition rate ([1]; inhibitor 1 × 10^-5 M) was 98.2%. It also gave an Inhibition rate ([1]; inhibitor 1 × 10^-6 M) of 54.8% and an Inhibition rate ([1]; inhibitor 1 × 10^-7 M) of 0%.
For `O=c1[nH]c(=O)c2[nH]cnc2[nH]1` [Xanthine], the Relative activity [2] was 100%, the “activity of xanthine oxidase on substrate (in words)” value [2] was “strong activity” and the Xanthine oxidase ([4]; amount of addition 0.3 g/dl) was 0.13 U/ml. For the same compound, the “Amount of formed hydrogen peroxide [B]” value ([5]; 0.93 U xanthine oxidase, pH 7.3, 37° C.) was 0.14 µmol and the “[B]/[A] (formed hydrogen peroxide / substrate)” value ([5]; 37° C.) was 0.93.
For `NC(=O)c1ccc[n+]([C@@H]2O[C@H](COP(=O)([O-])OP(=O)(O)OC[C@H]3O[C@@H](n4cnc5c(N)ncnc54)[C@H](O)[C@@H]3O)[C@@H](O)[C@H]2O)c1` [NAD], the Relative activity [6] is listed as < 1.3 and the Relative activity [7] is listed as 0%.
With `[Cl][Cu]` [CuCl] the “inhibition … (in words)” value [1] was “inhibitors of xanthine oxidase”, the Inhibition rate ([1]; inhibitor 1 × 10^-4 M) was 90.5% and the Inhibition rate ([1]; inhibitor 1 × 10^-5 M) was 53.5%. It also gave an Inhibition rate ([1]; inhibitor 1 × 10^-6 M) of 2.2%.
